From ChEMBL document CHEMBL1201862, “PubChem BioAssay data set” (2004)
Calls of active or inactive are those of the source.

Tests used:
[1] = molecular target: Protein disulfide-isomerase (Homo sapiens, UniProt P07237); assay: inhibition of PDI-driven insulin aggregation – biochemical, turbidity, absorbance, cherry-picked samples, dose response (AID 602350); format: functional
[2] = (§1) Counterscreen for antagonists of the orexin 1 receptor (OX1R; HCRTR1): Fluorescence-based cell-based high throughput dose response assay to identify antagonists of the parental CHO cell line. [Related pubchem assays (depositor defined):AID434989, AID435008, AID463079, AID485270, AID492963, AID492964, AID492965, AID493232, AID504699, AID504701]; format: functional
[3] = molecular target: T1, Orexin/Hypocretin receptor type 1 (Homo sapiens, UniProt O43613); assay: Homogeneous Time Resolved Fluorescence (HTRF)-based cell-based high throughput dose response assay for antagonists of the orexin 1 receptor (OX1R; HCRTR1). [Related pubchem assays (depositor defined):AID434989, AID435008, AID463079, AID485270, AID492963, AID492964, AID492965, AID493232, AID504717, AID504718]; format: functional
T1 sequence (O43613 whole entry): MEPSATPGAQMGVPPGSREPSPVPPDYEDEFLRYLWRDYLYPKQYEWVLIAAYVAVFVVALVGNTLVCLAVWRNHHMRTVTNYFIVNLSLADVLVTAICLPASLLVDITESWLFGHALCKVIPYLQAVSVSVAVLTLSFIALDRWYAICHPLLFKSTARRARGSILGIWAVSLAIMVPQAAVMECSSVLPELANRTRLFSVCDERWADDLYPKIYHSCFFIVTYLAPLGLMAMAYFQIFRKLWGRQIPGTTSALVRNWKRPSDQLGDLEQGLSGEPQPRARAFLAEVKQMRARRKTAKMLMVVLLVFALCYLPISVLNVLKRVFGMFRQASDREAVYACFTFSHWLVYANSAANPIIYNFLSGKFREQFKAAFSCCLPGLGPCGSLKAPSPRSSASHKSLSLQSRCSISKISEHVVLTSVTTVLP

[4] = molecular target: T1, Orexin/Hypocretin receptor type 1; assay: Fluorescence-based cell-based high throughput dose response assay for antagonists of the orexin 1 receptor (OX1R; HCRTR1). [Related pubchem assays (depositor defined):AID434989, AID435008, AID463079, AID485270, AID492963, AID492964, AID492965, AID493232, AID504717, AID504718]; format: functional
Orexin receptor type 2 [5] = molecular target: T2, Orexin receptor type 2 (Homo sapiens, UniProt O43614); assay: Counterscreen assay for antagonists of the orexin 1 receptor (OX1R; HCRTR1): Fluorescence-based cell-based dose response assay for antagonists of the orexin 2 receptor (OX2R; HCRTR2), run by assay provider.; format: functional
T2 sequence (O43614 whole entry): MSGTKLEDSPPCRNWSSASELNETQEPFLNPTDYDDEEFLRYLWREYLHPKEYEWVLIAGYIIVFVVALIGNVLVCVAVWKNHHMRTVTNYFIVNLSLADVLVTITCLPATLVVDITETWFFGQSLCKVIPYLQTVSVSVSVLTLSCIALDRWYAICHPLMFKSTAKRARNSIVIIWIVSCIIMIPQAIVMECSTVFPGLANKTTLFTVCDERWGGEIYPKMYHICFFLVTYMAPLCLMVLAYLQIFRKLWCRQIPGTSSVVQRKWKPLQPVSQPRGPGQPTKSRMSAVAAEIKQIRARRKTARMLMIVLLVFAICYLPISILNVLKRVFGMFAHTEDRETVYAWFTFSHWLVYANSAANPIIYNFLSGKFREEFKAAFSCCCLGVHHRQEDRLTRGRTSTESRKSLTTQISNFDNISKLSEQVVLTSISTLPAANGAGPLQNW

[6] = molecular target: Peroxisome proliferator-activated receptor gamma/Nuclear receptor corepressor 2 (Homo sapiens, UniProt P37231+Q9Y618); assay: Counterscreen for NR2E3 inverse agonists: TR-FRET-based biochemical high throughput dose response assay to identify inverse agonists of the interaction between peroxisome proliferator-activated receptor gamma (PPARg) and nuclear receptor co-repressor 2 (NCOR2).; format: functional
Sequence of Peroxisome proliferator-activated receptor gamma/Nuclear receptor corepressor 2 (P37231 whole entry): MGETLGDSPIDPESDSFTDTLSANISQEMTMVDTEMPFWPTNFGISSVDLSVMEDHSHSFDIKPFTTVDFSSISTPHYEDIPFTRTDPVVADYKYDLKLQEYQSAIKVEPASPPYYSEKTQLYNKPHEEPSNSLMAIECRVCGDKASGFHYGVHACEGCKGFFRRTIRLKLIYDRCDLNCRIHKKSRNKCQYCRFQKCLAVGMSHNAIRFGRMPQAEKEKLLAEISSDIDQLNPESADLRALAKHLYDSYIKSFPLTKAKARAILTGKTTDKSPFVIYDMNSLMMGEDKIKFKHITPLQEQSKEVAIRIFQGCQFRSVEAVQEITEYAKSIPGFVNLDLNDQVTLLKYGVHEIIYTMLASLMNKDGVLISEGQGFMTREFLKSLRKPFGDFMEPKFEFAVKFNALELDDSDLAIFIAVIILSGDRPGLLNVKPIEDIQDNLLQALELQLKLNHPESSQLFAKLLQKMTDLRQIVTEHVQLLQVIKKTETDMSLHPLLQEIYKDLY
Sequence of Peroxisome proliferator-activated receptor gamma/Nuclear receptor corepressor 2 (Q9Y618 whole entry): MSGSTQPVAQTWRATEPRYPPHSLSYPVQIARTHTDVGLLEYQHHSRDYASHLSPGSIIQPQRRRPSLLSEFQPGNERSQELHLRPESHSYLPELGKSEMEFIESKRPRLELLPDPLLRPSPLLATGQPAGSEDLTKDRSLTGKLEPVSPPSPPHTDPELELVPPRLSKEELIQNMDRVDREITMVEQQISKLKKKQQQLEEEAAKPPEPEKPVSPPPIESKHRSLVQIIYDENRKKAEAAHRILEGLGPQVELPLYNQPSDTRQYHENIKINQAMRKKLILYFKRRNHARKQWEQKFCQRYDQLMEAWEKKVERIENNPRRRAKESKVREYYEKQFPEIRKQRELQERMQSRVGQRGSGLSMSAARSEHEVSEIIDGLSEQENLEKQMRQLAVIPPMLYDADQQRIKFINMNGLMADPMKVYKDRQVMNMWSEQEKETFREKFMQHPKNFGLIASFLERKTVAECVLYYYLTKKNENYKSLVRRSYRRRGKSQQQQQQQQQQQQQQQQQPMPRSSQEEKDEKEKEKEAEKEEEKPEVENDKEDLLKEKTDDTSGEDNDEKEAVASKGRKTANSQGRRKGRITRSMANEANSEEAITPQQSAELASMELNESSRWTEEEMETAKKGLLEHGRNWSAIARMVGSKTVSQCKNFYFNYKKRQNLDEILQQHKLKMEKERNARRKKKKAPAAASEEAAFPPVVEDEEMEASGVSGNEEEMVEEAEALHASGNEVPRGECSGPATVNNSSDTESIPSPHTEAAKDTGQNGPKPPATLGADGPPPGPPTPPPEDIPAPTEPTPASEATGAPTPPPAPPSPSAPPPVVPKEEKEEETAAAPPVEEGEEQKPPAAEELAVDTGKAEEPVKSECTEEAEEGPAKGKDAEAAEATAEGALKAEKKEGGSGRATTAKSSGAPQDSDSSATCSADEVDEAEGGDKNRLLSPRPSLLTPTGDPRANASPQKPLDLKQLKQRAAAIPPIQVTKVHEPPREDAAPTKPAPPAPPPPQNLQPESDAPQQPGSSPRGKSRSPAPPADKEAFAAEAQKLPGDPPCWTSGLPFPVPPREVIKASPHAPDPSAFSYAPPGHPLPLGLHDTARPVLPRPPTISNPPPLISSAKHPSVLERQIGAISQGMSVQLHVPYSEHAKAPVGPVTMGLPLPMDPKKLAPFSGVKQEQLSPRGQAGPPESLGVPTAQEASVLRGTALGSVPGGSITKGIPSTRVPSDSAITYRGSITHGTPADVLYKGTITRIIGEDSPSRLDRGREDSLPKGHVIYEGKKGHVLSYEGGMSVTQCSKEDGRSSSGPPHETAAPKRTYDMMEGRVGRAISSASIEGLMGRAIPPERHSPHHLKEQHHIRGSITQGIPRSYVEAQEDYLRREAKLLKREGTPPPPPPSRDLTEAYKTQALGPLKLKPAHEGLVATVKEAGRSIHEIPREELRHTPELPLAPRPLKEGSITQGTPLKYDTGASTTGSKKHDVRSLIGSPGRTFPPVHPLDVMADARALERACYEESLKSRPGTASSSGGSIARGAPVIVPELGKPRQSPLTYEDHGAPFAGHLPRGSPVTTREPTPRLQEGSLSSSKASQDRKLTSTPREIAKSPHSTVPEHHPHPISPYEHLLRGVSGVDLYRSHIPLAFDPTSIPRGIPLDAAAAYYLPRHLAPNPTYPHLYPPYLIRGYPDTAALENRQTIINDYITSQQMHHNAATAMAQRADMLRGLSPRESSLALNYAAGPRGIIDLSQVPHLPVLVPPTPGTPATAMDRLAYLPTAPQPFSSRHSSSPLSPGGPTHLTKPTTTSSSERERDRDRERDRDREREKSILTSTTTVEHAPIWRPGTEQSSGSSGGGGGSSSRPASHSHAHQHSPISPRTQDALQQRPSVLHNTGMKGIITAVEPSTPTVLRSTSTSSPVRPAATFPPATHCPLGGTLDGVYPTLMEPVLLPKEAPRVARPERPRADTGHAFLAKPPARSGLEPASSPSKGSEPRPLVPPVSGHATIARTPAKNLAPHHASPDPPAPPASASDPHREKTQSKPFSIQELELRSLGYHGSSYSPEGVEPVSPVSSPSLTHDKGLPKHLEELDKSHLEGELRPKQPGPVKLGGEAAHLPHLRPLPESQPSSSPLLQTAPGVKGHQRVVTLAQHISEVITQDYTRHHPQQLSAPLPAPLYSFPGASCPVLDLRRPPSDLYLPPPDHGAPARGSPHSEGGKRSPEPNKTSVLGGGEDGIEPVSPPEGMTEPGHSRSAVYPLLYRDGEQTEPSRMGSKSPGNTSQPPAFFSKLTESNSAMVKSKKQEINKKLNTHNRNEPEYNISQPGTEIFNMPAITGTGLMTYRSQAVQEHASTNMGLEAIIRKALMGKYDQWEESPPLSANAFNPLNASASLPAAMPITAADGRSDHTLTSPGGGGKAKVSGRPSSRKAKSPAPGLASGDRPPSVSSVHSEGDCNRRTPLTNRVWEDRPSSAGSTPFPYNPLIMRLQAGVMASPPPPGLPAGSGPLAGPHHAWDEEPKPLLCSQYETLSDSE

CHO-K1 = assay: as §1, with “Homogeneous time resolved fluorescence (HTRF)-based” for “Fluorescence-based”, “cell-based” for “cell-based high throughput”, “CHO-K1” for “CHO”; format: functional; conditions: Cricetulus griseus;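 further: potency for inhibition of ATP-stimulated IP1 production as antagonists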
[7] = molecular target: Photoreceptor-specific nuclear receptor (Homo sapiens, UniProt Q9Y5X4); assay: ligands suppressing NR2E3 nuclear receptor activity – biochemical, TR-FRET, dose response (AID 463256); format: functional
Sequence of Photoreceptor-specific nuclear receptor (Q9Y5X4 whole entry): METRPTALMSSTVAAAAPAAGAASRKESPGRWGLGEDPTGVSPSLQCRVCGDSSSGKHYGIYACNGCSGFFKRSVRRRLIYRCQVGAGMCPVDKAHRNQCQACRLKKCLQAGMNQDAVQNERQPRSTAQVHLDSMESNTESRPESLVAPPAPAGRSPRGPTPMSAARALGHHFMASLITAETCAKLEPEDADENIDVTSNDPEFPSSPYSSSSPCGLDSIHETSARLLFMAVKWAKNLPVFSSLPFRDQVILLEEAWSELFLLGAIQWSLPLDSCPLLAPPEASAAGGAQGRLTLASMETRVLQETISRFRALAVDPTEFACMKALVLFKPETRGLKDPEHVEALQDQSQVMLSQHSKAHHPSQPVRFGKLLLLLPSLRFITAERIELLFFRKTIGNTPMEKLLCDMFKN

Orexin receptor type 2 [8] = molecular target: T2, Orexin receptor type 2; assay: Counterscreen assay for antagonists of the orexin 1 receptor (OX1R; HCRTR1): Homogeneous Time Resolved Fluorescence (HTRF)-based cell-based dose response assay for antagonists of the orexin 2 receptor (OX2R; HCRTR2), run by assay provider.; format: functional
BJ [9] = assay: growth inhibition of engineered Ras-driven BJ cells – cell-based, alamar blue fluorescence, cherrypicked samples, dose response (AID 2631); format: functional; conditions: Homo sapiens;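 further: confirmatory dose-response assay in RAS-dependent BJ fibroblasts engineered with TERT, LT and ST, with cytotoxicity read by fluorescence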
Insulin-degrading enzyme [10] = molecular target: T3, Insulin-degrading enzyme (Homo sapiens, UniProt P14735); assay: recombinant IDE activation, cell-free – biochemical, fluorescence polarization, counter-screen for IDE activator project, dose response (AID 588681)
T3 sequence (P14735 whole entry): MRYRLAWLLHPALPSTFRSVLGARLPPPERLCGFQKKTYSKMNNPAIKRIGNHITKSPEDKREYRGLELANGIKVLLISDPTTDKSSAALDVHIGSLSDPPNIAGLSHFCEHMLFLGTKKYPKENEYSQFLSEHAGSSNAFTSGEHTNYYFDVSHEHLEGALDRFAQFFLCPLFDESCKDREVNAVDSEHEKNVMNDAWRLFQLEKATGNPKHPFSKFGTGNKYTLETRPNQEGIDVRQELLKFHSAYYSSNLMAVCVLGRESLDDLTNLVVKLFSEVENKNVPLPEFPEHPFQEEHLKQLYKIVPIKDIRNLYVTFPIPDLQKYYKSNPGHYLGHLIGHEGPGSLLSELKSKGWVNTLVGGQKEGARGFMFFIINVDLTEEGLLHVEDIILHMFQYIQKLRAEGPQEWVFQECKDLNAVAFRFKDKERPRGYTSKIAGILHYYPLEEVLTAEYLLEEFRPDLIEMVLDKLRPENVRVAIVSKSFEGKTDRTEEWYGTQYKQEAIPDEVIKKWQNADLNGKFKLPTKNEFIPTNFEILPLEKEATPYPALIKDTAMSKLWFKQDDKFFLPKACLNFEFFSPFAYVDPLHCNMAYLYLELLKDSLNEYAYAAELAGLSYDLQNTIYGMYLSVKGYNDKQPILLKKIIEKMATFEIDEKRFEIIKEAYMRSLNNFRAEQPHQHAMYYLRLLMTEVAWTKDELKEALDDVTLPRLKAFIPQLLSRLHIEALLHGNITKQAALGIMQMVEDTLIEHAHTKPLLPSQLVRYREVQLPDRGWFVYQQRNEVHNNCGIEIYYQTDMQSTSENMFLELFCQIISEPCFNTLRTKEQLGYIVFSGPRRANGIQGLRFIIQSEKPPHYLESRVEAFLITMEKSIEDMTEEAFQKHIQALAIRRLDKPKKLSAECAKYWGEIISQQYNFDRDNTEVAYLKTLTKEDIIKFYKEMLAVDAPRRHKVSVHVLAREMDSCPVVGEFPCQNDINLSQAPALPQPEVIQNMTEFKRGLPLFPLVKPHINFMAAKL

[11] = NIH-3T3 fibroblast cytotoxicity, dose response, cytotoxicity control, cell-based, fluorescence, Alamar Blue, secondary assay (AID 2327); format: functional;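 further: NIH-3T3 mouse fibroblasts cultured with fluconazole at 8 µg/mL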
HEK293 [12] = assay: membrane integrity loss in HEK cells – cell-based, fluorescence, cytotoxicity control for IDE activator project, dose response (AID 588440); format: functional; conditions: Homo sapiens;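 further: cytotoxicity by LDH release measuring loss of membrane integrity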
[13] = Luminescence Cell-Based Dose Response HTS to Identify Inhibitors of 5'UTR Stem-Loop Driven Prion Protein mRNA Translation in H4 Neuroglioblastoma Cells. [Related pubchem assays: 1827 (Project Summary), 1813 (Primary HTS)]; format: functional
[14] = test system: Streptococcus sp. 'group A'; assay: Streptococcus pyogenes SK(-)GAS viability under kanamycin – luminescence, BacTiterGlo, confirmation, counter-screen for streptokinase expression inhibitor project, dose response (AID 1900); format: functional, organism-based
HEK293 [15] = assay: optical interference in Abeta FP readout, dose response, artefact control for IDE activator project, biochemical, fluorescence polarization (AID 588442); format: functional, cell-based; conditions: Homo sapiens
[16] = alpha-synuclein stem-loop luciferase translation blockers – H4 neuroglioma cells, luminescence, confirmation (AID 1988); format: functional, cell-based
BJ [17] = assay: BJ-TERT fibroblast viability loss – cell-based, RAS-independent, luminescence, dose response (AID 1933); format: functional; conditions: Homo sapiens
[18] = loss of viability in HepG2 cells – cell-based, CellTiter-Glo, cherry-picked, cytotoxicity control for Shn3 inhibitor project, dose response (AID 624134); format: functional
BJ [19] = assay: cells; format: functional, cell-based; conditions: Homo sapiens
[20] = HEK-293T viability loss after treatment – luminescence, T-cell screen hits, cytotoxicity control for TCR NF-kB inhibitor project, dose response (AID 489026); format: functional, cell-based;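 further: cells exposed to compound about 14 hours before the viability readout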
[21] = fluconazole-exposed Candida albicans growth modulators – fluorescence, retest, confirmation (AID 2467); format: functional, cell-based
[22] = reduction of Shn3 3'UTR-driven luciferase in osteoblasts – cell-based, Clone20 osteoblasts, firefly luciferase, cherry-picked, dose response (AID 624132); format: functional;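 further: firefly luciferase luminescence from reporter carrying the Shn3 3'UTR in osteoblasts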
Streptococcus = assay: GAS UMAA2166 growth inhibition – luminescence, BacTiterGlo, counter-screen for streptokinase expression inhibitor project, dose response (AID 1915); format: functional, organism-based;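 further: potency for reduction of bacterial viability or growth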
INS1 = assay: INS-1E survival protection against cytokine death – cell-based, luminescence, retest, dose response (AID 449756); format: functional; conditions: Rattus norvegicus;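 further: cell death triggered by IL-1 beta plus TNF-alpha plus IFN-gamma mixture; protective hits raise ATP signal compared with cytokine alone wells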
[23] = DRD fibroblast viability loss – cell-based, non-viral oncogenic, luminescence, dose response (AID 1934); format: functional; conditions: Homo sapiens
[24] = luciferase reporter signal suppression in cells – H4 neuroglioma cells, luminescence, dose response (AID 1990); format: functional, cell-based
[25] = molecular target: T4, Short transient receptor potential channel 4 (Mus musculus, UniProt Q9QUQ5); assay: calcium entry via TRPC4 opening agents – cell-based, HEK293 TRPC4/mu-opioid, Fluo-4 calcium, dose response (AID 434937); format: functional
T4 sequence (Q9QUQ5 whole entry): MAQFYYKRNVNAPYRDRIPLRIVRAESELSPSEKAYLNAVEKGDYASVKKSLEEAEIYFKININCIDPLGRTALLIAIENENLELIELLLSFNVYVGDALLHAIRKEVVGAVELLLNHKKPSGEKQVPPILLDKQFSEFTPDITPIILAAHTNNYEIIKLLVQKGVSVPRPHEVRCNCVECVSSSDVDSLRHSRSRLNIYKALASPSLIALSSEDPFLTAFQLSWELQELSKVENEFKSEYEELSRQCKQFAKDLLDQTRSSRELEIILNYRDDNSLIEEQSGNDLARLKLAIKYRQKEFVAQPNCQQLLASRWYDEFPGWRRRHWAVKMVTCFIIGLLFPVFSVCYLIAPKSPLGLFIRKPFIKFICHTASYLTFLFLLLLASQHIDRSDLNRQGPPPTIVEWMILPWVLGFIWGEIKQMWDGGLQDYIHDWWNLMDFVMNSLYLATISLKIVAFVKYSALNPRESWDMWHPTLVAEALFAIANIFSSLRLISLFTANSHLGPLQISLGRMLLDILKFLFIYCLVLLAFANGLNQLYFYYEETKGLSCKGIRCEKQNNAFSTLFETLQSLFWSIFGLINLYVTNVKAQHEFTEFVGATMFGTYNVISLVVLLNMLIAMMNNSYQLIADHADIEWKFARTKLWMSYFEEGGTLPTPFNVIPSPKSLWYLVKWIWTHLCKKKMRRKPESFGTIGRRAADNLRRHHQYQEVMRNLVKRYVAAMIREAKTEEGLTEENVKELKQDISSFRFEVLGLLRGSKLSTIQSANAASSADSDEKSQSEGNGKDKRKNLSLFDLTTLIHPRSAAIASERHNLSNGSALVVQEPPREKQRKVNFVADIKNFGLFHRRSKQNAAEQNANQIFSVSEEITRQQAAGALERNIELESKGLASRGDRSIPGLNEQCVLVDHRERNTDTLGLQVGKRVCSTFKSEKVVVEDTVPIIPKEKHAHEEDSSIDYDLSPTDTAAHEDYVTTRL

BJ [26] = assay: BJ-TERT-LT-ST fibroblast viability loss – cell-based, RAS-independent, luminescence, dose response (AID 1935); format: functional; conditions: Homo sapiens;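 further: BJ fibroblasts immortalized with TERT plus LT and ST oncogenes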
Insulin-degrading enzyme [27] = molecular target: T3, Insulin-degrading enzyme; assay: cellular IDE activation of Abeta substrate cleavage – fluorescence polarization, HEK cells, dose response (AID 588439); format: functional, cell-based
[28] = non-specific 3'UTR reporter inhibition in Clone20-Shn3RL – cell-based, Renilla luciferase, cherry-picked, counter-screen for Shn3 inhibitor project, dose response (AID 624133); format: functional
Beta-galactosidase = Beta-galactosidase (Escherichia coli, UniProt Q8VNN2); assay: detection-enzyme interference by beta-gal modulators – biochemical, E. coli enzyme, set 3, artefact control for CCR6 antagonist project, dose response (AID 504712); format: functional

Sequence of Protein disulfide-isomerase (P07237 whole entry): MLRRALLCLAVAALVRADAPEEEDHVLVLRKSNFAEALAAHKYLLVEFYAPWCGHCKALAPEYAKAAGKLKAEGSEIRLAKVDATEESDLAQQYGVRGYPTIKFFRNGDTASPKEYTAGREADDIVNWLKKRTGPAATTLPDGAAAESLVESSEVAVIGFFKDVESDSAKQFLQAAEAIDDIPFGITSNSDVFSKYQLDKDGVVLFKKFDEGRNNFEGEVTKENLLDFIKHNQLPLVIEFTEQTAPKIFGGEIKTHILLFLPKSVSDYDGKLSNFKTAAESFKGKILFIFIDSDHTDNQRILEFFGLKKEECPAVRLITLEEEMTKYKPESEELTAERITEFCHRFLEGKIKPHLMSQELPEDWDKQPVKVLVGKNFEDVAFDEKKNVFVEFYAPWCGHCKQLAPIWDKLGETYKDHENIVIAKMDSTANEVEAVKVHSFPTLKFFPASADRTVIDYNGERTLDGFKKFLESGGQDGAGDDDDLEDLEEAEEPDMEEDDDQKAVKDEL

CN(C)C(=O)CSc1nnc([C@H](Cc2c[nH]c3ccccc23)NC(=O)OC(C)(C)C)o1
active: AC50 [1] 19.5 µM

Cc1nc2ccc(NC(=O)c3oc4ccc(F)cc4c3C)cc2s1
active: IC50 [3] 0.386 µM | IC50 [4] 1.76 µM | IC50 [6] 8.73 µM
inactive: IC50 [2] > 49.7 µM | IC50 (Orexin receptor type 2 [5]) > 88.8 µM | IC50 (CHO-K1) > 66.2 µM | IC50 (Orexin receptor type 2 [8]) > 50 µM
> 39.8 µM (not active): IC50 [7]

CNC[C@H](CC1CCCCC1)NC[C@H](Cc1ccccc1)NCCC12CC3CC(CC(C3)C1)C2
active: IC50 (HEK293 [12]) 3.37 µM | EC50 [14] 3.27 µM | AC50 [18] 4.47 µM | EC50 [21] 3.71 µM | AC50 [22] 5.51 µM | EC50 (Streptococcus) 8.1 µM | AC50 (INS1) 3.77 µM | EC50 [23] 4.21 µM | EC50 [24] 5.5 µM | EC50 [25] 8.41 µM | EC50 (BJ [26]) 2 µM | EC50 (Insulin-degrading enzyme [27]) 7.02 µM | AC50 [28] 7.45 µM
inactive: EC50 (Insulin-degrading enzyme [10]) > 54.7 µM | EC50 (HEK293 [15]) > 55.9 µM | IC50 [20] 22.8 µM | IC50 (Beta-galactosidase) > 66.6 µM
inconclusive: EC50 (BJ [9]) 0.509 µM | EC50 [11] 136 µM | EC50 (BJ [17]) 2.64 µM | EC50 (BJ [19]) 5.14 µM
> 120 µM (not active): EC50 [13] | EC50 [16]
